Assays:
Assay in all cases: relative viability (nuclei count vs DMSO), 5 days (fraction); higher = more cells survive
[1] = test system: 201T
Method in brief: (§1)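 Cells from lung cancer lines were seeded into 1536-well plates and, one day later, dosed by pin tool. Treatments were either a single drug or a fixed dose of an anchor drug with five library-drug doses (not always all listed) in √10 steps. After 5 days, nuclei were stained in a one-step fixation (final 0.05% Triton X-100, 1% formaldehyde, 1 ug/ml Hoechst) and counted on 4× images, and relative viability is the treated-to-vehicle nuclei ratio, as the median of duplicate plates.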

[2] = test system: NCI-H647
Method in brief: as §1

[3] = test system: EMC-BAC-2
Method in brief: as §1

[4] = test system: NCI-H3122
Method in brief: as §1

[5] = test system: NCI-H2009
Method in brief: as §1

[6] = test system: H3255
Method in brief: as §1

[7] = test system: NCI-H2126
Method in brief: as §1

[8] = test system: NCI-H2170
Method in brief: as §1

[9] = test system: SK-MES-1
Method in brief: as §1

[10] = test system: LK-2
Method in brief: as §1

[11] = test system: NCI-H596
Method in brief: as §1

[12] = test system: NCI-H2087
Method in brief: as §1

[13] = test system: PC-14
Method in brief: as §1

[14] = test system: NCI-H1734
Method in brief: as §1

[15] = test system: NCI-H322M
Method in brief: as §1

[16] = test system: NCI-H441
Method in brief: as §1

[17] = test system: NCI-H1755
Method in brief: as §1

[18] = test system: ChaGo-K-1
Method in brief: as §1

[19] = test system: NCI-H1651
Method in brief: as §1

[20] = test system: CAL-12T
Method in brief: as §1

[21] = test system: ABC-1
Method in brief: as §1

[22] = test system: LXF-289
Method in brief: as §1

[23] = test system: HOP-62
Method in brief: as §1

O=C(O)CCCCC(CCSCc1ccccc1)SCc1ccccc1 (stereo not given) [CPI-613] + C[C@@H](Oc1cc(-c2cnn(C3CCNCC3)c2)cnc1N)c1c(Cl)ccc(F)c1Cl [Crizotinib] (partner 1 µM)
relative viability ([1]; first compound 5 µM): 1.04
relative viability ([1]; first compound 15.81 µM): 0.989
relative viability ([1]; first compound 50 µM): 0.94
relative viability ([1]; first compound 158.11 µM): 0.93
relative viability ([1]; first compound 500 µM): 0.984
relative viability ([2]; first compound 5 µM): 0.853
relative viability ([2]; first compound 15.81 µM): 1.01
relative viability ([2]; first compound 50 µM): 0.769
relative viability ([2]; first compound 158.11 µM): 0.0681
relative viability ([2]; first compound 500 µM): 0.0175
relative viability ([3]; first compound 5 µM): 0.753
relative viability ([3]; first compound 15.81 µM): 0.708
relative viability ([3]; first compound 50 µM): 0.83
relative viability ([3]; first compound 158.11 µM): 0.494
relative viability ([3]; first compound 500 µM): 0.267
relative viability ([4]; first compound 5 µM): 0.234
relative viability ([4]; first compound 15.81 µM): 0.261
relative viability ([4]; first compound 50 µM): 0.281
relative viability ([4]; first compound 158.11 µM): 0.247
relative viability ([4]; first compound 500 µM): 0.0651
relative viability ([5]; first compound 5 µM): 1.1
relative viability ([5]; first compound 15.81 µM): 1.01
relative viability ([5]; first compound 50 µM): 1.04
relative viability ([5]; first compound 158.11 µM): 0.462
relative viability ([5]; first compound 500 µM): 0.0097
relative viability ([6]; first compound 5 µM): 0.773
relative viability ([6]; first compound 15.81 µM): 0.894
relative viability ([6]; first compound 50 µM): 0.914
relative viability ([6]; first compound 158.11 µM): 0.831
relative viability ([6]; first compound 500 µM): 0.742
relative viability ([7]; first compound 5 µM): 1.01
relative viability ([7]; first compound 15.81 µM): 0.999
relative viability ([7]; first compound 50 µM): 0.942
relative viability ([7]; first compound 158.11 µM): 0.706
relative viability ([7]; first compound 500 µM): 0.23
relative viability ([8]; first compound 5 µM): 1.15
relative viability ([8]; first compound 15.81 µM): 1.18
relative viability ([8]; first compound 50 µM): 1.13
relative viability ([8]; first compound 158.11 µM): 0.746
relative viability ([8]; first compound 500 µM): 0.335
relative viability ([9]; first compound 5 µM): 0.918
relative viability ([9]; first compound 15.81 µM): 0.961
relative viability ([9]; first compound 50 µM): 0.936
relative viability ([9]; first compound 158.11 µM): 0.926
relative viability ([9]; first compound 500 µM): 0.734
relative viability ([10]; first compound 5 µM): 0.225
relative viability ([10]; first compound 15.81 µM): 0.191
relative viability ([10]; first compound 50 µM): 0.227
relative viability ([10]; first compound 158.11 µM): 0.219
relative viability ([10]; first compound 500 µM): 0.249
relative viability ([11]; first compound 5 µM): 0.959
relative viability ([11]; first compound 15.81 µM): 0.966
relative viability ([11]; first compound 50 µM): 1.1
relative viability ([11]; first compound 158.11 µM): 0.589
relative viability ([11]; first compound 500 µM): 0.0472
relative viability ([12]; first compound 5 µM): 0.909
relative viability ([12]; first compound 15.81 µM): 0.706
relative viability ([12]; first compound 50 µM): 0.706
relative viability ([12]; first compound 158.11 µM): 0.132
relative viability ([12]; first compound 500 µM): 0.0499
relative viability ([13]; first compound 5 µM): 0.871
relative viability ([13]; first compound 15.81 µM): 0.939
relative viability ([13]; first compound 50 µM): 0.799
relative viability ([13]; first compound 158.11 µM): 0.848
relative viability ([13]; first compound 500 µM): 0.33
relative viability ([14]; first compound 5 µM): 0.695
relative viability ([14]; first compound 15.81 µM): 0.685
relative viability ([14]; first compound 50 µM): 0.62
relative viability ([14]; first compound 158.11 µM): 0.279
relative viability ([14]; first compound 500 µM): 0.113
relative viability ([15]; first compound 5 µM): 0.917
relative viability ([15]; first compound 15.81 µM): 0.917
relative viability ([15]; first compound 50 µM): 1
relative viability ([15]; first compound 158.11 µM): 0.996
relative viability ([15]; first compound 500 µM): 1.01
relative viability ([16]; first compound 5 µM): 0.685
relative viability ([16]; first compound 15.81 µM): 0.683
relative viability ([16]; first compound 50 µM): 0.635
relative viability ([16]; first compound 158.11 µM): 0.303
relative viability ([16]; first compound 500 µM): 0.343
relative viability ([17]; first compound 5 µM): 0.795
relative viability ([17]; first compound 15.81 µM): 0.835
relative viability ([17]; first compound 50 µM): 0.822
relative viability ([17]; first compound 158.11 µM): 0.386
relative viability ([17]; first compound 500 µM): 0.142
relative viability ([18]; first compound 5 µM): 1.14
relative viability ([18]; first compound 15.81 µM): 1.05
relative viability ([18]; first compound 50 µM): 0.992
relative viability ([18]; first compound 158.11 µM): 1.04
relative viability ([18]; first compound 500 µM): 0.813
relative viability ([19]; first compound 5 µM): 0.838
relative viability ([19]; first compound 15.81 µM): 0.769
relative viability ([19]; first compound 50 µM): 0.922
relative viability ([19]; first compound 158.11 µM): 0.818
relative viability ([19]; first compound 500 µM): 0.927
relative viability ([20]; first compound 5 µM): 0.596
relative viability ([20]; first compound 15.81 µM): 0.504
relative viability ([20]; first compound 50 µM): 0.471
relative viability ([20]; first compound 158.11 µM): 0.0667
relative viability ([20]; first compound 500 µM): 0.0085
relative viability ([21]; first compound 5 µM): 0.984
relative viability ([21]; first compound 15.81 µM): 0.855
relative viability ([21]; first compound 50 µM): 0.875
relative viability ([21]; first compound 158.11 µM): 0.367
relative viability ([21]; first compound 500 µM): 0.213
relative viability ([22]; first compound 5 µM): 0.776
relative viability ([22]; first compound 15.81 µM): 0.764
relative viability ([22]; first compound 50 µM): 0.73
relative viability ([22]; first compound 158.11 µM): 0.295
relative viability ([22]; first compound 500 µM): 0.0479
relative viability ([23]; first compound 5 µM): 0.862
relative viability ([23]; first compound 15.81 µM): 0.85
relative viability ([23]; first compound 50 µM): 0.851
relative viability ([23]; first compound 158.11 µM): 0.172
relative viability ([23]; first compound 500 µM): 0.387
